Experimental findings from ChEMBL document CHEMBL1649581, “Evaluation of target specificity of antibacterial agents using Staphylococcus aureus ddlA mutants and D-cycloserine in a silkworm infection model” (2009) are described below.

Holding throughout (assay type): functional
In test [1] the test system is Staphylococcus aureus. Kind of test: Antibacterial activity against Staphylococcus aureus TS2921 harboring ddlA Asp102Asn mutation in fifth-instar silkworm larva infection model assessed as compound concentration per gram of larva […] after 48 hrs post dose at 27 degC.
For test [2], the system named is Staphylococcus aureus. Kind of test: Antibacterial activity against Staphylococcus aureus TS10007 harboring ddlA Asp39Asn mutation after 20 hrs. To be noted: TS10007, 20 h.
Test [3] has as its system Staphylococcus aureus. Kind of test: Antibacterial activity against Staphylococcus aureus TS2921 harboring ddlA Asp102Asn mutation after 20 hrs. To be noted: TS2921, 20 h.
The test system of test [4] is Staphylococcus aureus. Kind of test: Antibacterial activity against Staphylococcus aureus RN4220 after 20 hrs. The conditions noted are these: RN4220, 20 h.
The test system of test [5] is Staphylococcus aureus. Kind of test: Antibacterial activity against Staphylococcus aureus TS2921 harboring ddlA Asp102Asn mutation in presence of 100 mM D-Ala-D-Ala, which complements temperature sensitivity after 20 hrs. To be noted: TS2921, 20 h.
Test [6] concerns Staphylococcus aureus. Kind of test: Antibacterial activity against Staphylococcus aureus TS5337 harboring ddlA Pro178Ser mutation after 20 hrs. The conditions noted are these: TS5337, 20 h.
Test [7] concerns Staphylococcus aureus. Kind of test: Antibacterial activity against Staphylococcus aureus RN4220 in fifth-instar silkworm larva infection model assessed as compound concentration per gram of larva […] after 48 hrs post dose at 27 degC.
Test [8] deals with Staphylococcus aureus. Briefly: Antibacterial activity against Staphylococcus aureus TS2921 harboring ddlA Asp102Asn mutation and coexpressing pSddlA which complements temperature sensitivity after 20 hrs. To be noted: TS2921, 20 h.
The test system of test [9] is Staphylococcus aureus. Briefly: Antibacterial activity against Staphylococcus aureus TS10007 harboring ddlA Asp39Asn mutation in fifth-instar silkworm larva infection model assessed as compound concentration per gram of larva […] after 48 hrs post dose at 27 degC.
The subject of test [10] is Staphylococcus aureus. Briefly: Antibacterial activity against Staphylococcus aureus TS5337 harboring ddlA Pro178Ser mutation in fifth-instar silkworm larva infection model assessed as compound concentration per gram of larva […] after 48 hrs post dose at 27 degC.

≈ marks a conversion by molar mass, not a printed value.

For orientation: MIC means the lowest concentration found to suppress growth. As for `O=C(N[C@H](CO)[C@H](O)c1ccc([N+](=O)[O-])cc1)C(Cl)Cl` [CHLORAMPHENICOL], the ED50 in the test on Staphylococcus aureus [1] is 5.3 µg; in the test with Staphylococcus aureus [7], 4.9 µg. The MIC in the test with Staphylococcus aureus [2] is 3.1 mg/L (≈ 9.59 µM); in the test with Staphylococcus aureus [3], 3.1 mg/L (≈ 9.59 µM); with Staphylococcus aureus [4], 6.3 mg/L (≈ 19.5 µM); in the test on Staphylococcus aureus [5], 3.1 mg/L; against Staphylococcus aureus [6], 3.1 mg/L (≈ 9.59 µM).

As to `N[C@@H]1CONC1=O` [CYCLOSERINE], the ED50 is below 2.2 µg with Staphylococcus aureus [1], below 2.2 µg in the test on Staphylococcus aureus [9], 40 µg in the test on Staphylococcus aureus [7] and 5.4 µg with Staphylococcus aureus [10]. In addition, the minimal inhibitory concentration (MIC) in the test on Staphylococcus aureus [2] is 50 mg/L (≈ 490 µM); with Staphylococcus aureus [3], 12.5 mg/L (≈ 122 µM); with Staphylococcus aureus [4], 100 mg/L (≈ 979 µM); against Staphylococcus aureus [8], above 100 mg/L; with Staphylococcus aureus [5], 50 mg/L; against Staphylococcus aureus [6], 25 mg/L (≈ 245 µM).

For `CO[C@@]1(NC(=O)CSC(F)F)C(=O)N2C(C(=O)O)=C(CSc3nnnn3CCO)CO[C@@H]21` [FLOMOXEF], the ED50 in the test on Staphylococcus aureus [1] was determined as 0.031 µg; in the test with Staphylococcus aureus [9], 0.048 µg; in the test on Staphylococcus aureus [7] it was 0.054 µg; in the test on Staphylococcus aureus [10], 0.031 µg. For the same molecule, the MIC worked out at 0.4 mg/L (≈ 0.806 µM) against Staphylococcus aureus [2]; 0.2 mg/L (≈ 0.403 µM) in the test with Staphylococcus aureus [3]; 0.4 mg/L (≈ 0.806 µM) against Staphylococcus aureus [4]; 0.4 mg/L (≈ 0.806 µM) with Staphylococcus aureus [8]; 0.4 mg/L in the test on Staphylococcus aureus [5]; 0.2 mg/L (≈ 0.403 µM) in the test with Staphylococcus aureus [6].

`CCn1cc(C(=O)O)c(=O)c2cc(F)c(N3CCNCC3)cc21` [NORFLOXACIN]: the minimum inhibitory concentration (MIC) was determined as 0.63 mg/L (≈ 1.97 µM) with Staphylococcus aureus [2]; 0.63 mg/L (≈ 1.97 µM) in the test with Staphylococcus aureus [3]; 0.63 mg/L (≈ 1.97 µM) in the test with Staphylococcus aureus [4]; 0.63 mg/L (≈ 1.97 µM) against Staphylococcus aureus [8]; 0.63 mg/L in the test with Staphylococcus aureus [5]; 0.63 mg/L (≈ 1.97 µM) in the test on Staphylococcus aureus [6].

Take `CN(C)[C@@H]1C(O)=C(C(N)=O)C(=O)[C@@]2(O)C(O)=C3C(=O)c4c(O)cccc4[C@@](C)(O)[C@H]3C[C@@H]12` [TETRACYCLINE]: the ED50 came to 0.7 µg in the test on Staphylococcus aureus [1], 0.35 µg with Staphylococcus aureus [9], 0.68 µg in the test with Staphylococcus aureus [7] and 0.75 µg in the test on Staphylococcus aureus [10]. Also, the MIC amounted to 0.063 mg/L (≈ 0.142 µM) against Staphylococcus aureus [2]; 0.063 mg/L (≈ 0.142 µM) in the test on Staphylococcus aureus [3]; 0.063 mg/L (≈ 0.142 µM) in the test with Staphylococcus aureus [4]; 0.063 mg/L (≈ 0.142 µM) in the test with Staphylococcus aureus [8]; 0.031 mg/L in the test on Staphylococcus aureus [5]; 0.063 mg/L (≈ 0.142 µM) in the test with Staphylococcus aureus [6].

For the molecule `CN[C@H](CC(C)C)C(=O)N[C@H]1C(=O)N[C@@H](CC(N)=O)C(=O)N[C@H]2C(=O)N[C@H]3C(=O)N[C@H](C(=O)N[C@H](C(=O)O)c4cc(O)cc(O)c4-c4cc3ccc4O)[C@H](O)c3ccc(c(Cl)c3)Oc3cc2cc(c3O[C@@H]2O[C@H](CO)[C@@H](O)[C@H](O)[C@H]2O[C@H]2C[C@](C)(N)[C@H](O)[C@H](C)O2)Oc2ccc(cc2Cl)[C@H]1O` [VANCOMYCIN], the ED50 in the test on Staphylococcus aureus [1] turned out to be 0.43 µg; in the test with Staphylococcus aureus [9], 0.25 µg; in the test on Staphylococcus aureus [7], 0.53 µg; in the test with Staphylococcus aureus [10] it was 0.45 µg. The MIC in the test with Staphylococcus aureus [2] was found to be 0.4 mg/L (≈ 0.276 µM); in the test on Staphylococcus aureus [3], 0.4 mg/L (≈ 0.276 µM); against Staphylococcus aureus [4], 0.4 mg/L (≈ 0.276 µM); in the test with Staphylococcus aureus [8] it was 0.4 mg/L (≈ 0.276 µM); with Staphylococcus aureus [5], 1.6 mg/L; in the test with Staphylococcus aureus [6] it was 0.4 mg/L (≈ 0.276 µM).
